# Measured values taken from ChEMBL document CHEMBL5038645, “Discovery of Mycobacterium tuberculosis Rv3364c-Derived Small Molecules as Potential Therapeutic Agents to Target SNX9 for Sepsis” (J Med Chem, 2022).
# The source made the active and inactive calls. The rule behind the calls is not given here.
# Tests used:
# [1] = Cmax in C57BL/6 mouse at 1 mg/kg, ip incubation up to 6 hrs by LC-MS/MS analysis; type: ADME, organism-based; design: route intraperitoneal, dose 1 mg/kg, time <=6; details: in vivo
# Mus musculus [2] = experiment: In vivo inhibition of SNX9-p47phox protein-protein interaction in CLP-induced systemic sepsis mouse model assessed as reduction ROS in splenocytes at 10 microg/kg, ip; type: functional, organism-based; details: dose 10.0 µg/kg
# [3] = Half life in C57BL/6 mouse at 1 mg/kg, ip incubation up to 6 hrs by LC-MS/MS analysis; type: ADME, organism-based; details: in vivo
# [4] = Stability in human plasma assessed as parent compound remaining at 10 uM incubation upto 120 mins by LC-MS/MS analysis relative to control; type: ADME, cell-free; details: read-out: Stability
# BMDM [5] = experiment: Inhibition of SNX9- p47phox protein-protein interaction in mouse BMDM at 10 uM preincubated for 1 hrs followed by LPS stimulation for 30 mins; type: cell-based; details: time 1.5 hrs
# Mus musculus [6] = experiment: Protection against CLP-induced systemic sepsis SNX9+/+ mouse model assessed as reduction in lung damage at 10 microg/kg, ip by H and E staining based analysis; type: functional, organism-based; details: dose 10.0 µg/kg
# Mus musculus [7] = experiment: Protection against CLP-induced systemic sepsis SNX9+/+ mouse model assessed as reduction in serum IL-1beta at 10 microg/kg, ip; type: functional, organism-based; details: dose 10.0 µg/kg
# THP-1 [8] = experiment: Inhibition of SNX9- p47phox protein-protein interaction in human THP-1 at 10 uM preincubated for 1 hrs followed by LPS stimulation for 30 mins; type: cell-based
# [9] = Antiinflammatory activity in […] cells assessed as reduction in LPS-induced IL-6 release at 10 uM pre incubated for 1 hr followed by LPS stimulation and measured after 30 mins by ELISA; type: functional
# [10] = Drug uptake in CLP-induced systemic sepsis mouse model in lung macrophages at 10 microg/kg, ip; type: ADME, tissue-based; details: in vivo, 0.01 mg/kg, dose 10 µg/kg
# THP-1 [11] = experiment: Effect on SNX9 expression in human THP-1 cells at 1 to 5000 nM measured after 24 to 48 hrs; type: functional, cell-based; details: dose 1-5000 nM, time 24-48 hrs
# Mus musculus [12] = experiment: In vivo inhibition of SNX9-p47phox protein-protein interaction in CLP-induced systemic sepsis mouse model at 10 microg/kg, ip; type: functional, organism-based; details: dose 10.0 µg/kg
# BMDM [13] = experiment: Antiinflammatory activity in LPS-induced […] cells assessed as reduction in TNF-alpha production preincubated for 1 hr followed by LPS stimulation and measured after 30 mins by ELISA; type: functional, cell-based; details: dose 1-10000 nM
# Mus musculus [14] = experiment: Protection against CLP-induced ip dosed systemic sepsis SNX9+/+ mouse model; type: functional, organism-based; details: dose 1.0 µg/kg
# THP-1 [15] = experiment: Antiinflammatory activity in LPS-induced human THP-1 cells assessed as reduction in TNF-alpha production preincubated for 1 hr followed by LPS stimulation and measured after 30 mins by ELISA; type: functional, cell-based; details: dose 1-10000 nM
# [16] = Stability in human liver microsomes assessed as parent compound remaining at 10 uM preincubated for 5 mins followed by NADPH addition measured after 30 mins by LC-MS/MS analysis relative to control; type: ADME, Microsome; details: time 35 min, read-out: Stability
# Mus musculus [17] = experiment: Protection against CLP-induced systemic sepsis SNX9+/+ mouse model assessed as reduction in spleen damage at 10 microg/kg, ip by H and E staining based analysis; type: functional, organism-based; details: dose 10.0 µg/kg
# Mus musculus [18] = experiment: Protection against CLP-induced systemic sepsis SNX9+/+ mouse model assessed as reduction in serum IL-18 at 10 microg/kg, ip; type: functional, organism-based; details: dose 10.0 µg/kg
# BMDM [19] = experiment: Effect on SNX9 expression in mouse BMDM cells at 1 to 5000 nM measured after 24 to 48 hrs; type: functional, cell-based; details: dose 1-5000 nM, time 24-48 hrs
# Mus musculus [20] = experiment: Protection against CLP-induced systemic sepsis SNX9+/+ mouse model assessed as mortality at 100 to 1000 microg/kg, ip; type: functional; details: dose 100-1000 µg/kg; at 100 to 1000 µg/kg
# Mus musculus [21] = experiment: Protection against CLP-induced systemic sepsis SNX9+/+ mouse model assessed as reduction in liver damage at 10 microg/kg, ip by H and E staining based analysis; type: functional, organism-based; details: dose 10.0 µg/kg
# Mus musculus [22] = experiment: Protection against CLP-induced systemic sepsis SNX9+/+ mouse model assessed as reduction in serum IL-6 at 10 microg/kg, ip; type: functional, organism-based; details: dose 10.0 µg/kg
# Pseudomonas aeruginosa = experiment: Antibacterial activity against Pseudomonas aeruginosa ATCC 10145 assessed as bacterial clearance incubated for 6 to 24 hrs by microbroth dilution method; type: functional; details: time 6-24 hrs
# [23] = Tmax in C57BL/6 mouse at 1 mg/kg, ip incubation up to 6 hrs by LC-MS/MS analysis; type: ADME, organism-based; details: in vivo
# Staphylococcus aureus = experiment: Antibacterial activity against Staphylococcus aureus ATCC 6538 assessed as bacterial clearance incubated for 6 to 24 hrs by microbroth dilution method; type: functional; details: time 6-24 hrs
# Mus musculus [24] = experiment: Protection against CLP-induced systemic sepsis SNX9-/- mouse model assessed as effect on mouse survival at 100 to 1000 microg/kg, ip; type: functional, organism-based; details: dose 100-1000 µg/kg
# Mus musculus [25] = experiment: Protection against CLP-induced systemic sepsis SNX9+/+ mouse model assessed as reduction in serum TNF-alpha at 10 microg/kg, ip; type: functional, organism-based; details: dose 10.0 µg/kg
# [26] = Antiinflammatory activity in […] cells assessed as reduction in LPS-induced TNF-alpha release at 10 uM pre incubated for 1 hr followed by LPS stimulation and measured after 30 mins by ELISA; type: functional
# [27] = Antiinflammatory activity in […] cells assessed as reduction in LPS-induced NOX release at 10 uM pre incubated for 1 hr followed by LPS stimulation and measured after 30 mins by ELISA; type: functional
# Mus musculus [28] = experiment: Protection against CLP-induced systemic sepsis SNX9+/+ mouse model assessed as reduction in serum IL-10 at 10 microg/kg, ip; type: functional, organism-based; details: dose 10.0 µg/kg
# BMDM [29] = experiment: Inhibition of SNX9- p47phox protein-protein interaction in LPS-induced early endosome of mouse BMDM cells at 10 uM preincubated for 1 hrs followed by LPS stimulation for 30 mins; type: cell-based
# THP-1 [30] = experiment: Inhibition of SNX9- p47phox protein-protein interaction in LPS-induced early endosome of human THP-1cells at 10 uM preincubated for 1 hrs followed by LPS stimulation for 30 mins; type: cell-based
# Mus musculus [31] = experiment: Protection against CLP-induced systemic sepsis SNX9+/+ mouse model assessed as reduction in serum IL-12p40 at 10 microg/kg, ip; type: functional, organism-based; details: dose 10.0 µg/kg
# [32] = Drug uptake in CLP-induced systemic sepsis mouse model in liver macrophages at 10 microg/kg, ip; type: ADME, tissue-based; details: in vivo, 0.01 mg/kg, dose 10 µg/kg
# Mus musculus [33] = experiment: Protection against CLP-induced systemic sepsis SNX9+/+ mouse model assessed as reduction in infiltration of immune cells at 10 microg/kg, ip by H & E staining based analysis; type: functional, organism-based; details: dose 10.0 µg/kg
# Escherichia coli = experiment: Antibacterial activity against Escherichia coli ATCC 12701 assessed as bacterial clearance incubated for 6 to 24 hrs by microbroth dilution method; type: functional; details: time 6-24 hrs
# [34] = AUC (0 to last) in C57BL/6 mouse at 1 mg/kg, ip incubation up to 6 hrs by LC-MS/MS analysis; type: ADME, organism-based; design: route intraperitoneal, dose 1 mg/kg, time <=6; details: in vivo
structure (smiles),measurement,setting,value
CC(C)(C)c1ccc(-c2nc(NCCOCCOCCN)nc(NCC3CCCO3)n2)cc1.Cl (configuration not stated),Cmax,[1],136 ng/mL
same,inhibition,Mus musculus [2],Active
same,half-life,[3],63.6 min
same,"remaining at 2 h, 10 µM",[4],93%
same,inhibition,BMDM [5],Active
same,Activity,Mus musculus [6],Active
same,Activity,Mus musculus [7],Active
same,inhibition,THP-1 [8],Active
same,inhibition at 10 µM,[9],66.7%
same,Drug uptake,[10],Active
same,Activity,THP-1 [11],inactive
same,inhibition,Mus musculus [12],Active
same,Activity,BMDM [13],Dose-Dependent Effect
same,Activity,Mus musculus [14],Dose-Dependent Effect
same,Activity,THP-1 [15],Dose-Dependent Effect
same,"remaining at 0.5 h, 10 µM",[16],> 100%
same,Activity,Mus musculus [17],Active
same,Activity,Mus musculus [18],Active
same,Activity,BMDM [19],inactive
same,Activity,Mus musculus [20],70%
same,Activity,Mus musculus [21],Active
same,Activity,Mus musculus [22],Active
same,MIC80,Pseudomonas aeruginosa,1.98 µg/mL
same,Tmax,[23],10.2 min
same,MIC80,Staphylococcus aureus,4 µg/mL
same,Activity,Mus musculus [24],inactive
same,Activity,Mus musculus [25],Active
same,inhibition at 10 µM,[26],60.8%
same,inhibition at 10 µM,[27],57%
same,Activity,Mus musculus [28],Active
same,inhibition,BMDM [29],Active
same,inhibition,THP-1 [30],Active
same,Activity,Mus musculus [31],Active
same,Drug uptake,[32],Active
same,Activity,Mus musculus [33],Active
same,MIC80,Escherichia coli,1.98 µg/mL
same,AUC(0-t) at 6 h,[34],209 ng·h/mL
